Columns and labels:
Androgen receptor = target: T1, Androgen receptor (Rattus norvegicus, UniProt P15207); format: functional
T1 sequence (P15207 whole entry): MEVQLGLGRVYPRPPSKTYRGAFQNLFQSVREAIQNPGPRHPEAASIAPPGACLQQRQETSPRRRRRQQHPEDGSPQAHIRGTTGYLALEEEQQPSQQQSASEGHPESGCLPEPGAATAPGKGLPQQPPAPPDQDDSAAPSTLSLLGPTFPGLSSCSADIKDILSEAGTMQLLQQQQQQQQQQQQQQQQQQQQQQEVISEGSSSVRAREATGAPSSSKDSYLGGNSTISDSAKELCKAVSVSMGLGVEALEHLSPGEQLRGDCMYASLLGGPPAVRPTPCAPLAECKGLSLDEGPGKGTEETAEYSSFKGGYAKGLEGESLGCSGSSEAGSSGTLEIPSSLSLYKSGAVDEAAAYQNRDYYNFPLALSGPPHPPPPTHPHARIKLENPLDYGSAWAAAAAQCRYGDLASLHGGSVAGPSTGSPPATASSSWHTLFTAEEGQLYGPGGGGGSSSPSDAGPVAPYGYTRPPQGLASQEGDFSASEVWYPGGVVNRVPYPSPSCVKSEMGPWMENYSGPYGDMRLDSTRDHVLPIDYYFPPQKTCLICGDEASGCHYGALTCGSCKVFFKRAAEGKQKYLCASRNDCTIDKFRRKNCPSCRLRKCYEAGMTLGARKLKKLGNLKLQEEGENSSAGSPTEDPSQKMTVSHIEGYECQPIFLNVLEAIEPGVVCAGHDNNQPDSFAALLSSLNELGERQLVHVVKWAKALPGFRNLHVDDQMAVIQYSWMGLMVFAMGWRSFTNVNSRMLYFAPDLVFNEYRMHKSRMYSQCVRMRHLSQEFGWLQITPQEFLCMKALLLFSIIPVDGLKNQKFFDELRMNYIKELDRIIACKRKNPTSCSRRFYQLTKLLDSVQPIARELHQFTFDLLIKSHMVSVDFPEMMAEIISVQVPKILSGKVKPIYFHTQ

[1] = target: Muscarinic acetylcholine receptor M3 (Homo sapiens, UniProt P20309)
[2] = target: 5-hydroxytryptamine receptor 2A (Homo sapiens, UniProt P28223); format: functional, cell-based
Estrogen receptor = target: T2, Estrogen receptor (Homo sapiens, UniProt P03372)
T2 sequence (P03372 whole entry): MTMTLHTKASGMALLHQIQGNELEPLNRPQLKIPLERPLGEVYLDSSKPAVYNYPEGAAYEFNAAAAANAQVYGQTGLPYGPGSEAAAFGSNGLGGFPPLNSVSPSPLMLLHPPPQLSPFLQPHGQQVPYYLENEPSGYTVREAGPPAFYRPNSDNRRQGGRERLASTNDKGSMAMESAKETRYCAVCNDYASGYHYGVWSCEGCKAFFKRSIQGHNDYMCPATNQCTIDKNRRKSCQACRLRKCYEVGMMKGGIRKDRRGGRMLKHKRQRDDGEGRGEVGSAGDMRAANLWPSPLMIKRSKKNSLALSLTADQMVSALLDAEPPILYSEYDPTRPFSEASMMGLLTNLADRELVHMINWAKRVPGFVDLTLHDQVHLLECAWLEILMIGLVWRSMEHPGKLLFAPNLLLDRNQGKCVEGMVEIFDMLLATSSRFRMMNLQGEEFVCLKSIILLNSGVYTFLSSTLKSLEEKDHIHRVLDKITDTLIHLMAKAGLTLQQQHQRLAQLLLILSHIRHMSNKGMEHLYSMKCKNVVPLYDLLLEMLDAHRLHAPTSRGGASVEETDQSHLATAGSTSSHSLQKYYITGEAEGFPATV

Melanocortin receptor 4 = Melanocortin receptor 4 (Homo sapiens, UniProt P32245)
[3] = target: Sodium channel protein type 5 subunit alpha (Homo sapiens, UniProt Q14524); format: functional, cell-based
[4] = target: T3, Endothelin receptor type B (Homo sapiens, UniProt P24530)
T3 sequence (P24530 whole entry): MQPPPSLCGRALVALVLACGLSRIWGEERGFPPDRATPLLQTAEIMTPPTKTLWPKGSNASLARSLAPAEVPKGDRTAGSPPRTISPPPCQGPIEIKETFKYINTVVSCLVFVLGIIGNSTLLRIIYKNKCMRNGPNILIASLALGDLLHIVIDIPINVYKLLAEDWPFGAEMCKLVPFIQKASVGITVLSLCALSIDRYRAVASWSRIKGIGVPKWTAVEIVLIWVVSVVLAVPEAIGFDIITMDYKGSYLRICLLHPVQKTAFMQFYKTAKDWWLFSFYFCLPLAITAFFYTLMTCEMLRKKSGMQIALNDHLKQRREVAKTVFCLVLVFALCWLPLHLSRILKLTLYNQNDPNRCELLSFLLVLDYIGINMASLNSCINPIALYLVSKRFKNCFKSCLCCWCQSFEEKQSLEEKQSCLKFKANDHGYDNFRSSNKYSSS

[5] = target: T4, Neuropeptide Y receptor type 2 (Homo sapiens, UniProt P49146)
T4 sequence (P49146 whole entry): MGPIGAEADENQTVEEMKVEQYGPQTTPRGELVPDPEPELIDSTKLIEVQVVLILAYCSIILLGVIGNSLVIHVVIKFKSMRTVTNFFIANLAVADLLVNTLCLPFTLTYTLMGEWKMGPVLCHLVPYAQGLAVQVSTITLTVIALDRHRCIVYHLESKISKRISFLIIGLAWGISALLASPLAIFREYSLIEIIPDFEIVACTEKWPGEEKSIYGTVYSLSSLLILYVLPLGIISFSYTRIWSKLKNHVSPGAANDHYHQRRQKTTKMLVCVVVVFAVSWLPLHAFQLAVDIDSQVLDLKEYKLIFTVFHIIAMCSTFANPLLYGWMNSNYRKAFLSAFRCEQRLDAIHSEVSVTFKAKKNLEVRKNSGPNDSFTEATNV
Further: assay procedure not described here.

Sodium channel protein type 5 subunit alpha, sequence (Q14524 whole entry): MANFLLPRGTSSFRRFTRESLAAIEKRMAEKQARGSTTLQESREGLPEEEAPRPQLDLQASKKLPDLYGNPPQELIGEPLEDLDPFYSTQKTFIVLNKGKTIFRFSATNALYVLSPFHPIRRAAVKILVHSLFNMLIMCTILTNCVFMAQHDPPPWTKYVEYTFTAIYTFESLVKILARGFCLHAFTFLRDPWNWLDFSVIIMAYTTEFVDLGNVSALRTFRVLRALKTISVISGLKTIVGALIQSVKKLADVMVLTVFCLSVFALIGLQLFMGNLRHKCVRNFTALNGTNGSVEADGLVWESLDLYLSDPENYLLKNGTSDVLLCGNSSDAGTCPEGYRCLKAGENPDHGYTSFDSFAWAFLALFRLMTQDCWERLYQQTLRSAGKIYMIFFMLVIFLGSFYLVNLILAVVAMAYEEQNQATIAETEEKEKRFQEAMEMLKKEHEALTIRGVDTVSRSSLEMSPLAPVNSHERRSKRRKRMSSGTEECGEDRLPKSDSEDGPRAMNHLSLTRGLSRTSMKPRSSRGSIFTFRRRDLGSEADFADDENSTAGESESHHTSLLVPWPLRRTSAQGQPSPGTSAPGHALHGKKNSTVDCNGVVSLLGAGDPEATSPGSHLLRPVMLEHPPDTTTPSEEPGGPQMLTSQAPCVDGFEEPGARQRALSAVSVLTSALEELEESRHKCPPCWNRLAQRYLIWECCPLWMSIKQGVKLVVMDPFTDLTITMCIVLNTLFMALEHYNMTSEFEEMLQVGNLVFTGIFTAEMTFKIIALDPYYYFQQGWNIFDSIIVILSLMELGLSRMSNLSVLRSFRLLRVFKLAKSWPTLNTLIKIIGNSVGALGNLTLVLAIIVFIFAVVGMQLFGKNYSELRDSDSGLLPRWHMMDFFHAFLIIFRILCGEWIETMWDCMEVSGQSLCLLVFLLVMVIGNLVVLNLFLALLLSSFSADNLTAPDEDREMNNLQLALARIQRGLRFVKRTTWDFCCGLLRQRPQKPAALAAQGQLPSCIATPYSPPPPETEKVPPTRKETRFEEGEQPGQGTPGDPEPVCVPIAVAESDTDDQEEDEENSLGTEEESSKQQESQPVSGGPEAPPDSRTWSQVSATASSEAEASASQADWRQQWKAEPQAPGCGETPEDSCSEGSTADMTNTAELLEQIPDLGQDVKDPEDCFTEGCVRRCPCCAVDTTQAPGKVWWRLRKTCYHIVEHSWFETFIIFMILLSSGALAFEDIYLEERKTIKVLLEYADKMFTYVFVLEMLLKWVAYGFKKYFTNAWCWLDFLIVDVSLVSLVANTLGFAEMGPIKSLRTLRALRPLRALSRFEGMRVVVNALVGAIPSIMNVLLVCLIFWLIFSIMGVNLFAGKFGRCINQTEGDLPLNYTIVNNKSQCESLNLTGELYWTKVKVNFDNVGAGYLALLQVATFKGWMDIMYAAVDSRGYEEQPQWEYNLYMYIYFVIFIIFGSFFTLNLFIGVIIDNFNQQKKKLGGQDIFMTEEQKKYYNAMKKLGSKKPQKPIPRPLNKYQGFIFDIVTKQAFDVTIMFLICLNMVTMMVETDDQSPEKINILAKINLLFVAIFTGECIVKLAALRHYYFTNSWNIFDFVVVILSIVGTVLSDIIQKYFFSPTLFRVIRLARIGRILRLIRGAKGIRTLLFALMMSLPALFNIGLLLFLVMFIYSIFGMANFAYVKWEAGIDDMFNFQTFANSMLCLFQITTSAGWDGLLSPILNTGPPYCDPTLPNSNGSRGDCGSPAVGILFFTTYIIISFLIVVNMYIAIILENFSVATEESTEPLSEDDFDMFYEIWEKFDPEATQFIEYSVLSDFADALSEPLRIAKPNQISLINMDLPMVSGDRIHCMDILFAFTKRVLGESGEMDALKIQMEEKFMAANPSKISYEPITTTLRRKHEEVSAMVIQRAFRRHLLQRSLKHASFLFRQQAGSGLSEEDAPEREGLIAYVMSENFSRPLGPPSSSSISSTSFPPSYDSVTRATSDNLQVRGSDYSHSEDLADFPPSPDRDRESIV
Melanocortin receptor 4, sequence (P32245 whole entry): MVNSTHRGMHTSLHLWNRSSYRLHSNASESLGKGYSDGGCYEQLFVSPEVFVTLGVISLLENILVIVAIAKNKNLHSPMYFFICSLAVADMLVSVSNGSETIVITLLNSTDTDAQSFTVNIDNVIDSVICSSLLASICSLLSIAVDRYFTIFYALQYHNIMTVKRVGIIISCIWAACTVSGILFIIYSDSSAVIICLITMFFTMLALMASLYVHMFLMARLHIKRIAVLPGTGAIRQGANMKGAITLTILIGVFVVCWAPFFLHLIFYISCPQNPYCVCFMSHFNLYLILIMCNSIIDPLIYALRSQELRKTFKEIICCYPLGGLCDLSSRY
Muscarinic acetylcholine receptor M3, sequence (P20309 whole entry): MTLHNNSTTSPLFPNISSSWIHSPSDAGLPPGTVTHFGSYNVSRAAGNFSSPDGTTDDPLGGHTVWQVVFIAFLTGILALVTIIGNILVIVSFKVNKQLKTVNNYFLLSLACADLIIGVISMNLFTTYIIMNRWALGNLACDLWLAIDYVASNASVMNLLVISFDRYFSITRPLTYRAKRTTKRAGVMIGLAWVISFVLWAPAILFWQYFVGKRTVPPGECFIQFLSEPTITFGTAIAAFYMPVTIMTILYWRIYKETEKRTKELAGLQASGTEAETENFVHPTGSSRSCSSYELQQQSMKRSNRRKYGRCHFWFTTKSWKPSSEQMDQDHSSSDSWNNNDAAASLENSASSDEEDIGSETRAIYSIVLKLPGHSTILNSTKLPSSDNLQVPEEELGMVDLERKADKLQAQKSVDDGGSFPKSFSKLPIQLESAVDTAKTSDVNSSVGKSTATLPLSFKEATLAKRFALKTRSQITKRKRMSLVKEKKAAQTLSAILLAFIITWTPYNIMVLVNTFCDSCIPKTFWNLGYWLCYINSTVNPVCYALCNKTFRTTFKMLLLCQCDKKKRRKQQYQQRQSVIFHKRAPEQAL
5-hydroxytryptamine receptor 2A, sequence (P28223 whole entry): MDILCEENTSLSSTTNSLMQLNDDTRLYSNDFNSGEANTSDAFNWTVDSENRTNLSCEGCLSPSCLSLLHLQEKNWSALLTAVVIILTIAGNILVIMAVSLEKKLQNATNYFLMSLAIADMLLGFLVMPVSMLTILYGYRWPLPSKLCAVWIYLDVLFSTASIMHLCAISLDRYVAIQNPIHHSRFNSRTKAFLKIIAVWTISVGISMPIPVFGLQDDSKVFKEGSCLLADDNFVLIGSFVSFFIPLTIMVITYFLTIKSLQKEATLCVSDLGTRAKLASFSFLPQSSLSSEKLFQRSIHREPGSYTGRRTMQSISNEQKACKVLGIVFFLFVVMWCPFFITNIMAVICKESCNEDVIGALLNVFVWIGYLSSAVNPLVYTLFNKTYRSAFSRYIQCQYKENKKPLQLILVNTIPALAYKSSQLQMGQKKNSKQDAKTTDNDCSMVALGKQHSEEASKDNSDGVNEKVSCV

| SMILES | AC50 [1] | AC50 [2] | AC50 (Estrogen receptor) | AC50 (Melanocortin receptor 4) | also measured |
| --- | --- | --- | --- | --- | --- |
| CC(=N)N1CC[C@H](SC2=C(C(=O)O)N3C(=O)[C@H]([C@@H](C)O)[C@H]3C2)C1 | 290 µM | > 300 µM | – | – | AC50 (Androgen receptor): > 300 µM |
| CC(/C=C1\SC(=S)N(CC(=O)O)C1=O)=C\c1ccccc1 | – | – | > 30 µM | – | – |
| O=C1CN2Cc3c(ccc(Cl)c3Cl)N=C2N1 [ANAGRELIDE] | > 10 µM | > 30 µM | > 30 µM | > 30 µM | – |
| CNCC[C@@H](Oc1ccccc1C)c1ccccc1 [ATOMOXETINE] | > 30 µM | – | > 30 µM | – | AC50 (Androgen receptor): > 30 µM |
| CCc1oc2ccccc2c1C(=O)c1cc(Br)c(O)c(Br)c1 [BENZBROMARONE] | – | – | > 30 µM | > 30 µM | AC50 (Androgen receptor): > 30 µM |
| Cc1ccc([C@@H]2O[C@H](CO)[C@@H](O)[C@H](O)[C@H]2O)cc1Cc1ccc(-c2ccc(F)cc2)s1 [CANAGLIFLOZIN ANHYDROUS] | – | – | – | – | AC50 [3]: > 50 µM |
| C=C(C)[C@@H]1CCC(C)=C[C@H]1c1c(O)cc(CCCCC)cc1O [CANNABIDIOL] | > 30 µM | 4.7 µM | – | – | AC50 (Androgen receptor): > 30 µM; AC50 [3]: > 10 µM |
| CO/N=C(\C(=O)N[C@@H]1C(=O)N2C(C(=O)O)=C(COC(N)=O)CS[C@H]12)c1ccco1 [CEFUROXIME] | > 30 µM | > 30 µM | – | – | – |
| [H]/N=C(\N/C(=N/[H])NCCCCCCNC(=N)NC(=N)Nc1ccc(Cl)cc1)Nc1ccc(Cl)cc1 [CHLORHEXIDINE] | 7.8 µM | 1.83 µM | > 30 µM | 0.271 µM | – |
| Clc1cccc(Cl)c1N=C1NCCN1 [CLONIDINE] | – | – | – | > 30 µM | AC50 [4]: > 30 µM; AC50 [5]: > 30 µM |
| COC(=O)[C@H](c1ccccc1Cl)N1CCc2sccc2C1 [CLOPIDOGREL] | – | – | > 30 µM | > 30 µM | AC50 [4]: > 30 µM; AC50 [5]: > 30 µM |
| CN1C[C@H](C(=O)N[C@]2(C)O[C@@]3(O)[C@@H]4CCCN4C(=O)[C@H](Cc4ccccc4)N3C2=O)C[C@@H]2c3cccc4[nH]cc(c34)C[C@H]21 [DIHYDROERGOTAMINE] | – | – | > 30 µM | > 30 µM | AC50 [4]: > 30 µM; AC50 [5]: > 30 µM |
| CNCC[C@H](Oc1cccc2ccccc12)c1cccs1 [DULOXETINE] | > 30 µM | – | – | 17.8 µM | AC50 [3]: 5.3 µM |
| C#Cc1cccc(Nc2ncnc3cc(OCCOC)c(OCCOC)cc23)c1 [ERLOTINIB] | > 30 µM | – | – | – | – |
| CCC(=O)O[C@@H](O[P@](=O)(CCCCc1ccccc1)CC(=O)N1C[C@H](C2CCCCC2)C[C@H]1C(=O)O)C(C)C [FOSINOPRIL] | > 30 µM | > 30 µM | – | – | – |
| Nc1nc(O)c2ncn(COC(CO)CO)c2n1 [GANCICLOVIR] | – | – | > 30 µM | – | – |
| Cc1cnc(NC(=O)C2=C(O)c3ccccc3S(=O)(=O)N2C)s1 [MELOXICAM] | – | – | > 30 µM | > 30 µM | AC50 [4]: > 30 µM; AC50 [5]: > 30 µM |
| CC(=O)/N=c1/sc(S(N)(=O)=O)nn1C [METHAZOLAMIDE] | > 30 µM | > 10 µM | > 10 µM | > 10 µM | – |
| CC[C@@H](CO)NC(=O)[C@@H]1C=C2c3cccc4[nH]cc(c34)C[C@H]2N(C)C1 [METHYLERGONOVINE] | – | – | > 30 µM | – | AC50 (Androgen receptor): 18 µM |

| SMILES | AC50 [1] | AC50 [2] | AC50 (Estrogen receptor) | AC50 (Melanocortin receptor 4) | also measured |
| --- | --- | --- | --- | --- | --- |
| CC(=O)Oc1ccccc1C(=O)Nc1ncc([N+](=O)[O-])s1 [NITAZOXANIDE] | 13 µM | 15 µM | > 30 µM | – | – |
| CNCCC=C1c2ccccc2CCc2ccccc21 [NORTRIPTYLINE] | – | – | > 30 µM | – | – |
| CN(C)c1cc(CNCC(C)(C)C)c(O)c2c1C[C@H]1C[C@H]3[C@H](N(C)C)C(O)=C(C(N)=O)C(=O)[C@@]3(O)C(O)=C1C2=O [OMADACYCLINE] | > 30 µM | > 30 µM | > 30 µM | – | AC50 (Androgen receptor): > 30 µM |
| COc1ccnc(C[S+]([O-])c2nc3ccc(OC(F)F)cc3[nH]2)c1OC (stereo unspecified) [PANTOPRAZOLE] | – | – | > 30 µM | > 30 µM | AC50 [4]: > 30 µM; AC50 [5]: > 30 µM |
| COc1ccc(Cc2nccc3cc(OC)c(OC)cc23)cc1OC [PAPAVERINE] | – | – | – | – | AC50 (Androgen receptor): > 30 µM |
| CC(C)C[C@H](CN)CC(=O)O [PREGABALIN] | > 30 µM | > 30 µM | > 30 µM | > 30 µM | AC50 [4]: > 30 µM; AC50 [5]: > 30 µM |
| CNC(=O)c1cc(Oc2ccc(NC(=O)Nc3ccc(Cl)c(C(F)(F)F)c3)c(F)c2)ccn1 [REGORAFENIB] | – | > 30 µM | – | – | AC50 (Androgen receptor): > 30 µM |
| CCOc1cc(CC(=O)N[C@@H](CC(C)C)c2ccccc2N2CCCCC2)ccc1C(=O)O [REPAGLINIDE] | > 30 µM | 9.4 µM | – | – | AC50 (Androgen receptor): > 30 µM |
| NC(=O)c1ncn([C@@H]2O[C@H](CO)[C@@H](O)[C@H]2O)n1 [RIBAVIRIN] | – | – | – | > 10 µM | AC50 [3]: > 50 µM |
| CCCN(CCC)CCc1cccc2c1CC(=O)N2 [ROPINIROLE] | > 30 µM | 7.3 µM | – | > 30 µM | AC50 [4]: > 30 µM; AC50 [5]: > 30 µM |
| CCCN(CCc1cccs1)[C@H]1CCc2c(O)cccc2C1 [ROTIGOTINE] | > 30 µM | – | – | – | AC50 (Androgen receptor): > 30 µM |
| CC(=O)S[C@@H]1CC2=CC(=O)CC[C@]2(C)[C@H]2CC[C@@]3(C)[C@@H](CC[C@@]34CCC(=O)O4)[C@H]12 [SPIRONOLACTONE] | – | – | > 30 µM | > 30 µM | AC50 [4]: > 30 µM; AC50 [5]: > 30 µM |
| NC(=O)NS(=O)(=O)c1ccc(N)cc1 [SULFACARBAMIDE] | – | – | – | – | AC50 [3]: > 50 µM |
| CCCCCCCCNC(C)C(O)c1ccc(SC(C)C)cc1 (stereo unspecified) [SULOCTIDIL] | – | – | – | – | AC50 [3]: 7.7 µM |
| CCCCNc1ccc(C(=O)OCCN(C)C)cc1 [TETRACAINE] | – | – | – | > 30 µM | AC50 [4]: > 30 µM; AC50 [5]: > 30 µM |
| Cn1c(=O)c2[nH]cnc2n(C)c1=O [THEOPHYLLINE] | – | – | – | > 30 µM | AC50 [4]: > 30 µM; AC50 [5]: > 30 µM |
| CN1CCN(CCCN2c3ccccc3Sc3ccc(S(=O)(=O)N(C)C)cc32)CC1 [THIOPROPERAZINE] | 18 µM | 5.8 µM | – | – | – |
| CC1(C)O[C@@H]2[C@@H](CO[C@@]3(COS(N)(=O)=O)OC(C)(C)O[C@@H]23)O1 [TOPIRAMATE] | – | – | > 30 µM | > 30 µM | AC50 [4]: > 30 µM; AC50 [5]: > 30 µM |
| Cc1cc(CC(=O)O)n(C)c1C(=O)c1ccc(Cl)cc1 [ZOMEPIRAC] | > 30 µM | > 30 µM | – | – | – |

Source: ChEMBL document CHEMBL5291721, “A preclinical secondary pharmacology resource illuminates target-adverse drug reaction associations of marketed drugs” (Nat Commun, 2023)
